Data: article PMC3851587 (Molecular and biochemical parasitology, 2013)

Columns and labels:
[1] = tested on: Chimera N3A; experiment: [3H]-adenosine uptake in transfected L. donovani cells; type: cell-based, Crithidia fasciculata; conditions: labelled compound
[2] = tested on: Chimera N1A; experiment: as above; type: cell-based, Crithidia fasciculata; conditions: labelled compound

## Nc1ncnc2c1ncn2[C@@H]1O[C@H](CO)[C@@H](O)[C@H]1O [adenosine]
[1]
  Km: 1.2 ± 0.16 µM
[2]
  Km: 0.5 ± 0.14 µM
